Experimental data published in ChEMBL document CHEMBL1201862, “PubChem BioAssay data set” (2004).
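Dose response: 5 concentrations. Exposure: 48 h. Format: 96-well plates. Endpoint: linear interpolation; highest concentration if not reached. Abbreviation: GI50, concentration required for 50% inhibition of growth.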 The source made the active and inactive calls. Cut-off read from the data, not from the text of the source: active = GI50 up to about 1.1 µM and inactive = higher.

Columns and labels:
Experiment in all cases: DTP human tumour cell line panel, 48 h
UACC-62 = system: UACC-62
SNB-75 = system: SNB-75
SR = system: SR
RPMI-8226 = system: RPMI-8226
HCT-15 = system: HCT-15
SK-MEL-28 = system: SK-MEL-28
NCI-H226 = system: NCI-H226
OVCAR-4 = system: OVCAR-4
HOP-62 = system: HOP-62
NCI-H460 = system: NCI-H460
SNB-19 = system: SNB-19
NCI-H522 = system: NCI-H522
OVCAR-3 = system: OVCAR-3
OVCAR-8 = system: OVCAR-8
A498 = system: A498
SK-MEL-2 = system: SK-MEL-2
PC-3 = system: PC-3
EKVX = system: EKVX
SF-268 = system: SF-268
MOLT-4 = system: MOLT-4
KM12 = system: KM12
HCC 2998 = system: HCC 2998
M14 = system: M14
SW-620 = system: SW-620
SK-OV-3 = system: SK-OV-3
COLO 205 = system: COLO 205
LOX IMVI = system: LOX IMVI
OVCAR-5 = system: OVCAR-5
MDA-MB-231 = system: MDA-MB-231
HCT-116 = system: HCT-116
Malme-3M = system: Malme-3M
SF-539 = system: SF-539
T47D = system: T47D
Hs-578T = system: Hs-578T
MCF7 = system: MCF7
HT-29 = system: HT-29
U-251 = system: U-251
786-0 = system: 786-0
TK-10 = system: TK-10
MDA-N = system: MDA-N
MDA-MB-435 = system: MDA-MB-435
CCRF-CEM = system: CCRF-CEM
NCI/ADR-RES = system: NCI/ADR-RES
K562 = system: K562
SF-295 = system: SF-295
BT-549 = system: BT-549
DU-145 = system: DU-145
SN12C = system: SN12C
SK-MEL-5 = system: SK-MEL-5
RXF 393 = system: RXF 393
ACHN = system: ACHN
HL-60 = system: HL-60
A549 = system: A549
CAKI-1 = system: CAKI-1
UO-31 = system: UO-31
NCI-H23 = system: NCI-H23
UACC-257 = system: UACC-257
HOP-92 = system: HOP-92
IGROV-1 = system: IGROV-1
DLD-1 = system: DLD-1
DMS-273 = system: DMS-273
DMS-114 = system: DMS-114
KM-20L2 = system: KM-20L2
M19-MEL = system: M19-MEL
LXFL 529 = system: LXFL 529

COc1c(Cl)c(=O)oc2ccc(Cl)cc12
GI50 (UACC-62): > 100 µM (inactive) | GI50 (SNB-75): 39.9 µM (inactive) | GI50 (SR): > 100 µM (inactive) | GI50 (RPMI-8226): > 100 µM (inactive) | GI50 (HCT-15): > 100 µM | GI50 (SK-MEL-28): > 100 µM (inactive) | GI50 (NCI-H226): > 100 µM (inactive) | GI50 (OVCAR-4): > 100 µM (inactive) | GI50 (HOP-62): > 100 µM (inactive) | GI50 (NCI-H460): > 100 µM (inactive) | GI50 (SNB-19): > 100 µM (inactive) | GI50 (NCI-H522): > 100 µM (inactive) | GI50 (OVCAR-3): > 100 µM (inactive) | GI50 (OVCAR-8): > 100 µM (inactive) | GI50 (A498): > 100 µM (inactive) | GI50 (SK-MEL-2): > 100 µM (inactive) | GI50 (PC-3): > 100 µM (inactive) | GI50 (EKVX): 81.7 µM (inactive) | GI50 (SF-268): > 100 µM (inactive) | GI50 (MOLT-4): > 100 µM (inactive) | GI50 (KM12): > 100 µM (inactive) | GI50 (HCC 2998): > 100 µM (inactive) | GI50 (M14): > 100 µM (inactive) | GI50 (SW-620): > 100 µM (inactive) | GI50 (SK-OV-3): > 100 µM (inactive) | GI50 (COLO 205): > 100 µM (inactive) | GI50 (LOX IMVI): > 100 µM (inactive) | GI50 (OVCAR-5): > 100 µM (inactive) | GI50 (MDA-MB-231): > 100 µM (inactive) | GI50 (HCT-116): > 100 µM (inactive) | GI50 (Malme-3M): > 100 µM (inactive) | GI50 (SF-539): > 100 µM (inactive) | GI50 (T47D): > 100 µM (inactive) | GI50 (Hs-578T): > 100 µM (inactive) | GI50 (MCF7): > 100 µM (inactive) | GI50 (HT-29): > 100 µM (inactive) | GI50 (U-251): 60.7 µM (inactive) | GI50 (786-0): > 100 µM (inactive) | GI50 (TK-10): > 100 µM (inactive) | GI50 (MDA-N): > 100 µM (inactive) | GI50 (MDA-MB-435): > 100 µM (inactive) | GI50 (CCRF-CEM): > 100 µM (inactive) | GI50 (NCI/ADR-RES): > 100 µM (inactive) | GI50 (K562): > 100 µM (inactive) | GI50 (SF-295): 53.2 µM (inactive) | GI50 (BT-549): > 100 µM (inactive) | GI50 (DU-145): > 100 µM (inactive) | GI50 (SN12C): > 100 µM (inactive) | GI50 (SK-MEL-5): > 100 µM (inactive) | GI50 (RXF 393): > 100 µM (inactive) | GI50 (ACHN): > 100 µM (inactive) | GI50 (HL-60): > 100 µM (inactive) | GI50 (A549): > 100 µM (inactive) | GI50 (CAKI-1): > 100 µM (inactive) | GI50 (UO-31): > 100 µM (inactive) | GI50 (NCI-H23): > 100 µM (inactive) | GI50 (UACC-257): > 100 µM (inactive) | GI50 (HOP-92): 25.2 µM (inactive) | GI50 (IGROV-1): > 100 µM (inactive)

CNC(=O)N(C)/N=N/CCCl
GI50 (UACC-62): > 100 µM (inactive) | GI50 (DLD-1): > 100 µM (inactive) | GI50 (SNB-75): > 100 µM (inactive) | GI50 (SR): > 100 µM (inactive) | GI50 (RPMI-8226): > 100 µM (inactive) | GI50 (HCT-15): > 100 µM | GI50 (SK-MEL-28): > 100 µM (inactive) | GI50 (NCI-H226): > 100 µM (inactive) | GI50 (OVCAR-4): > 100 µM (inactive) | GI50 (HOP-62): > 100 µM (inactive) | GI50 (DMS-273): > 100 µM (inactive) | GI50 (NCI-H460): > 100 µM (inactive) | GI50 (SNB-19): > 100 µM (inactive) | GI50 (NCI-H522): > 100 µM (inactive) | GI50 (OVCAR-3): > 100 µM (inactive) | GI50 (OVCAR-8): > 100 µM (inactive) | GI50 (DMS-114): > 100 µM (inactive) | GI50 (A498): > 100 µM (inactive) | GI50 (SK-MEL-2): > 100 µM (inactive) | GI50 (PC-3): > 100 µM (inactive) | GI50 (EKVX): > 100 µM (inactive) | GI50 (SF-268): > 100 µM (inactive) | GI50 (MOLT-4): > 100 µM (inactive) | GI50 (KM12): > 100 µM (inactive) | GI50 (HCC 2998): > 100 µM (inactive) | GI50 (M14): > 100 µM (inactive) | GI50 (SW-620): > 100 µM (inactive) | GI50 (SK-OV-3): > 100 µM (inactive) | GI50 (COLO 205): > 100 µM (inactive) | GI50 (LOX IMVI): > 100 µM (inactive) | GI50 (OVCAR-5): > 100 µM (inactive) | GI50 (MDA-MB-231): > 100 µM (inactive) | GI50 (HCT-116): > 100 µM (inactive) | GI50 (Malme-3M): > 100 µM (inactive) | GI50 (SF-539): > 100 µM (inactive) | GI50 (T47D): > 100 µM (inactive) | GI50 (Hs-578T): > 100 µM (inactive) | GI50 (MCF7): > 100 µM (inactive) | GI50 (HT-29): > 100 µM (inactive) | GI50 (U-251): > 100 µM (inactive) | GI50 (786-0): > 100 µM (inactive) | GI50 (TK-10): > 100 µM (inactive) | GI50 (MDA-N): > 100 µM (inactive) | GI50 (MDA-MB-435): > 100 µM (inactive) | GI50 (CCRF-CEM): > 100 µM (inactive) | GI50 (NCI/ADR-RES): > 100 µM (inactive) | GI50 (KM-20L2): > 100 µM (inactive) | GI50 (K562): > 100 µM (inactive) | GI50 (M19-MEL): > 100 µM (inactive) | GI50 (SF-295): > 100 µM (inactive) | GI50 (LXFL 529): > 100 µM (inactive) | GI50 (DU-145): > 100 µM (inactive) | GI50 (SN12C): > 100 µM (inactive) | GI50 (SK-MEL-5): > 100 µM (inactive) | GI50 (RXF 393): > 100 µM (inactive) | GI50 (ACHN): > 100 µM (inactive) | GI50 (HL-60): > 100 µM (inactive) | GI50 (A549): > 100 µM (inactive) | GI50 (CAKI-1): > 100 µM (inactive) | GI50 (UO-31): > 100 µM (inactive) | GI50 (NCI-H23): > 100 µM (inactive) | GI50 (UACC-257): > 100 µM (inactive) | GI50 (HOP-92): > 100 µM (inactive) | GI50 (IGROV-1): > 100 µM (inactive)
